From US9365533B2, “Coumarin derivative” (NIPPON ZOKI PHARMACEUTICAL CO., LTD., priority 2012, dated 2016)
Structures can show the parent of a compound that is named as a salt.

Columns and labels:
[1] = test system: cartilage pieces of bovine metacarpophalangeal joint; test: Suppressive action to cartilage destruction: release of sGAG induced by IL-1α from cartilage pieces; format: cell-based; conditions: 25 μmol/L test substance, 2 h pretreatment, human recombinant IL-1α 3 ng/mL, 4 days at 37° C.; for inhibition at 25 µM: Bos taurus, 96 h, read-out: sGAG Releasing Suppressive Rate (%)
Experimental: Evaluation of Suppressive Action to Cartilage Destruction [Release of sGAG Induced by Interleukin-1α (IL-1α)]
(1) Incubation of Cartilage Pieces
Each four cartilage pieces of bovine metacarpophalangeal joint were placed in each well of a 48-well plate and pretreated for 2 hours with a basal medium [D-MEM (Dulbecco's Modified Eagle Medium) containing 2 mmol/L of glutamine, 25 mmol/L of Hepes, 100 μg/mL of streptomycin, 100 IU/mL of penicillin and 5.6 μg/mL of amphotericin B] containing 25 μmol/L of a test substance. Human recombinant IL-1α (3 ng/mL) was added thereto followed by incubating at 37° C. for 4 days in a CO2 incubator set at 5 vol % of CO2. Culture supernatant and cartilage pieces were recovered and stored by freezing until the measurement for each of them.
(2) Measurement of the Amount of sGAG and Calculation of the Suppressive Rate for the Release of sGAG
The recovered cartilage pieces were treated with a papain solution [containing 1 mg/mL of papain, 100 mmol/L of sodium phosphate (pH 6.5), 5 mmol/L of L-cysteine and 5 mmol/L of disodium ethylenediaminetetraacetate (EDTA)] at 65° C. for about 16 hours to solubilize. Amount of sGAG in the resulting extract was measured using an sGAG Alcian Blue Binding Kit (Wieslab AB) which is a quantitative kit to which a Alcian blue staining protocol is applied. sGAG in the culture supernatant after the incubation was measured without subjecting to a papain treatment. Each releasing rate of sGAG was determined by the following formula to calculate the suppressive rate for the release of sGAG. Releasing rate (%) of sGAG={(Total sGAG amount in the culture supernatant)/[(Total sGAG amount in the culture supernatant)+(Total sGAG amount in the cartilage pieces)]}×100 Suppressive rate (%) for release of sGAG={[Releasing rate of sGAG (IL-1α stimulation)−Releasing rate of sGAG (Test substance)]/[Releasing rate of sGAG (IL-1α stimulation)−Releasing rate of sGAG (Non-stimulation)]}×100

HFLS-OA cells = test: Suppressive action to TNF-α-induced proliferation of synovial cells (HFLS-OA), BrdU ELISA; format: cell-based; conditions: 200 μmol/L test substance, human recombinant TNF-α 10 ng/mL, 5 days, BrdU incorporation increase by TNF-α = 100%; for activity at 200 µM: Synovial cell, 120 h, read-out: Synovial Cell Proliferation Rate (%)
Experimental: Evaluation of Suppressive Action to Cell Proliferation of Synovial Cells (HFLS-OA) Derived from Tissues of Human Osteoarthritis
(1) Incubation of HFLS-OA Cells
HFLS-OA cells were sown onto a 96-well plate so as to make them 10^4 cells/well/100 μL in a D-MEM containing 2 vol % of fetal bovine serum (FBS) and incubated for 24 hours. A test substance (200 μmol/L) and human recombinant TNF-α (10 ng/mL) were added thereto followed by incubating for 5 days.
(2) Measurement of Action to HFLS-OA Cell Proliferation
A kit [Cell Proliferation ELISA, BrdU (colorimetric) (Roche Diagnostics)] was used and measurement was conducted according to the protocol attached to the kit. HFLS-OA cells were incubated for 3 days and 10 μL of 5-bromo-2′-deoxyuridine (BrdU) dissolved in a phosphate buffered saline (PBS) (100 μmol/L, pH 7.4) was added to each well followed by incubating for 48 hours more. After the culture supernatant was removed from each well, 200 μL/well of an immobilization/denaturation solution was added thereto and the mixture was allowed to stand for 30 minutes whereby immobilization of the cells and denaturation of DNA were conducted. After the immobilization/denaturation solution was completely removed, 100 μL of a peroxidase-labeled anti-BrdU antibody solution was added thereto and the mixture was made to react at room temperature for 90 minutes. After washing with PBS, 100 μL of a substrate liquid (tetramethylbenzidine) was added to each well and the absorbance was measured. A cell proliferation rate upon addition of each test substance was calculated where an increase in incorporation of BrdU upon addition of TNF-α was defined as 100% of cell proliferation rate.

O=c1oc2c(OS(=O)(=O)c3ccccc3)cccc2cc1NS(=O)(=O)c1ccc(C(F)(F)F)cc1 [Compound 27, 2-Oxo-3-[[4-(trifluoromethyl)phenyl]sulfonylamino]-chromen-8-yl benzenesulfonate]
inhibition at 25 µM [1]: 162%
activity at 200 µM (HFLS-OA cells): -36.3%

O=c1oc2c(OS(=O)(=O)c3ccccc3)cccc2cc1NS(=O)(=O)c1cccc(C(F)(F)F)c1 [Compound 28, 2-Oxo-3-[[3-(trifluoromethyl)phenyl]sulfonylamino]-chromen-8-yl benzenesulfonate]
inhibition at 25 µM [1]: 140%
activity at 200 µM (HFLS-OA cells): -33.7%

O=c1oc2c(OS(=O)(=O)c3ccccc3)cccc2cc1NS(=O)(=O)c1ccc(Cl)cc1 [Compound 29, 3-[(4-Chlorophenyl)sulfonylamino]-2-oxochromen-8-yl benzenesulfonate]
inhibition at 25 µM [1]: 121%
activity at 200 µM (HFLS-OA cells): -31.3%

O=c1oc2c(OS(=O)(=O)c3ccccc3)cccc2cc1NS(=O)(=O)c1ccc(-c2ccccc2)cc1 [Compound 30, 2-Oxo-3-[(4-phenylphenyl)sulfonylamino]chromen-8-yl benzenesulfonate]
inhibition at 25 µM [1]: 141%
activity at 200 µM (HFLS-OA cells): -33%

O=c1oc2c(OS(=O)(=O)c3ccccc3)cccc2cc1NS(=O)(=O)c1cccc(Br)c1 [Compound 31, 3-[(3-Bromophenyl)sulfonylamino]-2-oxochromen-8-yl benzenesulfonate]
inhibition at 25 µM [1]: 135%
activity at 200 µM (HFLS-OA cells): -37.1%

O=c1oc2c(OS(=O)(=O)c3cccc(Br)c3)cccc2cc1NS(=O)(=O)c1cccc(Br)c1 [Compound 32, 3-[(3-Bromophenyl)sulfonylamino]-2-oxochromen-8-yl 3-bromobenzenesulfonate]
inhibition at 25 µM [1]: 202%
activity at 200 µM (HFLS-OA cells): -41.1%

O=c1oc2c(OS(=O)(=O)c3cccc(C(F)(F)F)c3)cccc2cc1NS(=O)(=O)c1cccc(C(F)(F)F)c1 [Compound 33, 2-Oxo-3-[[3-(trifluoromethyl)phenyl]sulfonylamino]-chromen-8-yl 3-(trifluoromethyl)benzenesulfonate]
inhibition at 25 µM [1]: 147%
activity at 200 µM (HFLS-OA cells): -40%

O=c1oc2c(OS(=O)(=O)c3cccc(Br)c3)cccc2cc1NS(=O)(=O)c1ccccc1 [Compound 34, 3-(Benzenesulfonamide)-2-oxochromen-8-yl 3-bromobenzenesulfonate]
sGAG Releasing Suppressive Rate (%) [1]: 109%
Synovial Cell Proliferation Rate (%) (HFLS-OA cells): −31.6%

O=c1oc2c(OS(=O)(=O)c3cccc(C(F)(F)F)c3)cccc2cc1NS(=O)(=O)c1ccccc1 [Compound 35, 3-(Benzenesulfonamide)-2-oxochromen-8-yl 3-(trifluoromethyl)benzenesulfonate]
sGAG Releasing Suppressive Rate (%) [1]: 103%
Synovial Cell Proliferation Rate (%) (HFLS-OA cells): −31.5%

O=c1oc2c(OS(=O)(=O)c3cccnc3)cccc2cc1NS(=O)(=O)c1cccc(Br)c1 [Compound 36]
sGAG Releasing Suppressive Rate (%) [1]: 30%
Synovial Cell Proliferation Rate (%) (HFLS-OA cells): −33.9%

CS(=O)(=O)Oc1cccc2cc(NS(=O)(=O)c3cccc(Br)c3)c(=O)oc12 [Compound 37, 3-[(3-Bromophenyl)sulfonylamino)]-2-oxochromen-8-yl methanesulfonate]
sGAG Releasing Suppressive Rate (%) [1]: 17%
Synovial Cell Proliferation Rate (%) (HFLS-OA cells): −22.6%

O=c1oc2c(OS(=O)(=O)c3cccc(Br)c3)cccc2cc1NS(=O)(=O)c1cccnc1 [Compound 38, 2-Oxo-3-(3-pyridylsulfonylamino)chromen-8-yl 3-bromobenzenesulfonate]
inhibition at 25 µM [1]: 67%
activity at 200 µM (HFLS-OA cells): -31.2%

O=c1oc2c(OS(=O)(=O)c3ccc([N+](=O)[O-])cc3)cccc2cc1NS(=O)(=O)c1cccc(C(F)(F)F)c1 [Compound 41, 2-Oxo-3-[[3-(trifluoromethyl)phenyl]sulfonylamino]-chromen-8-yl 4-nitrobenzenesulfonate]
inhibition at 25 µM [1]: 172%
activity at 200 µM (HFLS-OA cells): -37.7%

O=c1oc2c(OS(=O)(=O)c3cccc(C(F)(F)F)c3)cccc2cc1NS(=O)(=O)c1ccc([N+](=O)[O-])cc1 [Compound 42, 3-[(4-Nitrophenyl)sulfonylamino]-2-oxochromen-8-yl 3-(trifluoromethyl)benzenesulfonate]
inhibition at 25 µM [1]: 163%
activity at 200 µM (HFLS-OA cells): -35.5%

O=c1oc2c(OS(=O)(=O)c3cccs3)cccc2cc1NS(=O)(=O)c1cccc([N+](=O)[O-])c1 [Compound 43, 3-[(3-Nitrophenyl)sulfonylamino]-2-oxochromen-8-yl thiophene-2-sulfonate]
inhibition at 25 µM [1]: 107%
activity at 200 µM (HFLS-OA cells): -30.3%

O=c1oc2c(OS(=O)(=O)c3cccc([N+](=O)[O-])c3)cccc2cc1NS(=O)(=O)c1cccs1 [Compound 44, 2-Oxo-3-(2-thienylsulfonylamino)chromen-8-yl 3-nitrobenzenesulfonate]
inhibition at 25 µM [1]: 118%
activity at 200 µM (HFLS-OA cells): -31.5%

Nc1ccc(S(=O)(=O)Oc2cccc3cc(NS(=O)(=O)c4cccc(C(F)(F)F)c4)c(=O)oc23)cc1 [Compound 46, 2-Oxo-3-[[3-(trifluoromethyl)phenyl]sulfonylamino]-chromen-8-yl 4-aminobenzenesulfonate hydrochloride]
inhibition at 25 µM [1]: 98%
activity at 200 µM (HFLS-OA cells): -37%

Nc1ccc(S(=O)(=O)Nc2cc3cccc(OS(=O)(=O)c4cccc(C(F)(F)F)c4)c3oc2=O)cc1 [Compound 47, 3-[(4-Aminophenyl)sulfonylamino]-2-oxochromen-8-yl 3-(trifluoromethyl)benzenesulfonate]
inhibition at 25 µM [1]: 69%
activity at 200 µM (HFLS-OA cells): -40.1%

CCOC(=O)c1ccc(S(=O)(=O)Oc2cccc3cc(NS(=O)(=O)c4cccc([N+](=O)[O-])c4)c(=O)oc23)cc1 [Compound 48, Ethyl 4-[3-[(3-nitrophenyl)sulfonylamino]-2-oxochromen-8-yl]oxysulfonylbenzoate]
inhibition at 25 µM [1]: 122%
activity at 200 µM (HFLS-OA cells): -34.9%

O=C(O)c1ccc(S(=O)(=O)Oc2cccc3cc(NS(=O)(=O)c4cccc([N+](=O)[O-])c4)c(=O)oc23)cc1 [Compound 49, 4-[3-[(3-Nitrophenyl)sulfonylamino]-2-oxochromen-8-yl]oxysulfonylbenzoic acid]
inhibition at 25 µM [1]: 38%
activity at 200 µM (HFLS-OA cells): -36.1%

O=c1oc2c(OS(=O)(=O)c3cccc([N+](=O)[O-])c3)cccc2cc1NS(=O)(=O)c1cccc(C(F)(F)F)c1 [Compound 50, 2-Oxo-3-[[3-(trifluoromethyl)phenyl]sulfonylamino]-chromen-8-yl 3-nitrobenzenesulfonate]
inhibition at 25 µM [1]: 163%
activity at 200 µM (HFLS-OA cells): -46.4%

O=c1oc2c(OS(=O)(=O)c3cccc(C(F)(F)F)c3)cccc2cc1NS(=O)(=O)c1cccc([N+](=O)[O-])c1 [Compound 51]
sGAG Releasing Suppressive Rate (%) [1]: 141%
Synovial Cell Proliferation Rate (%) (HFLS-OA cells): −36.5%

O=c1oc2c(OS(=O)(=O)c3cccc(C(F)(F)F)c3)cccc2cc1NS(=O)(=O)c1ccc(-c2ccccc2)cc1 [Compound 52, 2-Oxo-3-[(4-phenylphenyl)sulfonylamino]chromen-8-yl 3-(trifluoromethyl)benzenesulfonate]
inhibition at 25 µM [1]: 126%
activity at 200 µM (HFLS-OA cells): -35.5%

O=c1oc2c(OS(=O)(=O)c3cccc(Br)c3)cccc2cc1NS(=O)(=O)c1ccc(-c2ccccc2)cc1 [Compound 53, 2-Oxo-3-[(4-phenylphenyl)sulfonylamino]chromen-8-yl 3-bromobenzenesulfonate]
inhibition at 25 µM [1]: 131%
activity at 200 µM (HFLS-OA cells): -32.3%
